Where “and” joins values, the source holds several entries; their conditions need not be identical. Identical values can stand only once. Inconclusive results and toxic doses are left out. Cut-off read from the data, not from the text of the source: active = T/C of 150% or more; inactive = T/C below 125%.
Test system: L1210 leukemia ip in BDF1 mice, survival T/C
Test: NCI In Vivo Anticancer Drug Screen. Data for tumor model L1210 Leukemia (intraperitoneal) in B6D2F1 (BDF1) mice
Conditions: endpoint: mean survival time, higher = longer survival
Method in brief: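 Value reflects the ratio of survival in compound-treated mice to survival in vehicle-treated controls, with both groups carrying the same transplanted tumor.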

[1] = dose: 100.0 mg/kg/injection, schedule: Q04DX003 (ip), vehicle: Klucel (hydroxypropylcellulose) (HPC)
[2] = dose: 200.0 mg/kg/injection, schedule: Q04DX003 (ip), vehicle: Klucel (hydroxypropylcellulose) (HPC)
[3] = dose: 400.0 mg/kg/injection, schedule: Q04DX003 (ip), vehicle: Klucel (hydroxypropylcellulose) (HPC)
[4] = dose: 100.0 mg/kg/injection, schedule: Q04DX003 (ip), vehicle: saline
[5] = dose: 200.0 mg/kg/injection, schedule: Q04DX003 (ip), vehicle: saline
[6] = dose: 400.0 mg/kg/injection, schedule: Q04DX003 (ip), vehicle: saline
[7] = dose: 100.0 mg/kg/injection, schedule: Q01DX009 (ip), vehicle: saline with Tween-80
[8] = dose: 200.0 mg/kg/injection, schedule: Q01DX009 (ip), vehicle: saline with Tween-80
[9] = dose: 50.0 mg/kg/injection, schedule: Q01DX001 (ip), vehicle: other
[10] = dose: 100.0 mg/kg/injection, schedule: Q01DX001 (ip), vehicle: Klucel (hydroxypropylcellulose) (HPC)
[11] = dose: 400.0 mg/kg/injection, schedule: Q01DX001 (ip), vehicle: Klucel (hydroxypropylcellulose) (HPC)
[12] = dose: 200.0 mg/kg/injection, schedule: Q01DX001 (ip), vehicle: Klucel (hydroxypropylcellulose) (HPC)
[13] = dose: 25.0 mg/kg/injection, schedule: Q04DX003 (ip), vehicle: Klucel (hydroxypropylcellulose) (HPC)
[14] = dose: 50.0 mg/kg/injection, schedule: Q04DX003 (ip), vehicle: Klucel (hydroxypropylcellulose) (HPC)
[15] = dose: 100.0 mg/kg/injection, schedule: Q01DX001 (ip), vehicle: saline

Measured: T/C

O=C1CCC2(CCC(=O)c3ccccc32)C(=O)N1 (stereo not given)
inactive: dose: 50.0 mg/kg/injection, schedule: Q01DX009 (ip), vehicle: Klucel (hydroxypropylcellulose) (HPC) 104 % of control | dose: 100.0 mg/kg/injection, schedule: Q01DX009 (ip), vehicle: Klucel (hydroxypropylcellulose) (HPC) 104 % of control | [1] 93 % of control | dose: 200.0 mg/kg/injection, schedule: Q01DX009 (ip), vehicle: Klucel (hydroxypropylcellulose) (HPC) 104 % of control | [2] 93 % of control | dose: 400.0 mg/kg/injection, schedule: Q01DX009 (ip), vehicle: Klucel (hydroxypropylcellulose) (HPC) 108 % of control | [3] 100 % of control

Cc1ccc([N+](=O)[O-])o1
inactive: dose: 100.0 mg/kg/injection, schedule: Q04DX003 (ip), vehicle: saline with Tween-80 91 % of control | dose: 200.0 mg/kg/injection, schedule: Q04DX003 (ip), vehicle: saline with Tween-80 87 % of control

CCC(C(=O)O)C(O)(CC(=O)O)C(=O)O (stereo not given)
inactive: [4] 98 % of control | [5] 101 % of control | [6] 95 % of control

O=[N+]([O-])Cc1c2ccccc2nc2ccccc12
inactive: dose: 50.0 mg/kg/injection, schedule: Q01DX009 (ip), vehicle: saline with Tween-80 87 % of control | [7] 87 % of control | [8] 87 % of control

CN(/N=N/c1nc[nH]c1C(=O)NN)C1CCCCC1
inactive: [9] 95 % of control | dose: 100.0 mg/kg/injection, schedule: Q01DX001 (ip), vehicle: other 101 % of control | dose: 200.0 mg/kg/injection, schedule: Q01DX001 (ip), vehicle: other 98 % of control

CCCCCCCCCCCCCCCCCCSCCOCCSCCCCCCCCCCCCCCCCCC
inactive: [10] 87 % of control | [11] 88 % of control

Cc1ccccc1-n1c(O)c(N=Nc2ccc(Cl)cc2)c(=O)n(-c2ccccc2)c1=S
inactive: [10] 87 % of control | [12] 109 % of control

CN(C)[C@@H]1C(=O)C(C(N)=O)=C(O)[C@@]2(O)C(=O)C3=C(O)c4c(O)cccc4C[C@H]3C[C@@H]12
inactive: dose: 12.5 mg/kg/injection, schedule: Q01DX001 (ip), vehicle: other 94 % of control | dose: 12.5 mg/kg/injection, schedule: Q04DX003 (ip), vehicle: Klucel (hydroxypropylcellulose) (HPC) 98 % of control | dose: 18.75 mg/kg/injection, schedule: Q01DX009 (ip), vehicle: other 111 % of control | dose: 25.0 mg/kg/injection, schedule: Q01DX001 (ip), vehicle: other 96 % of control | [13] 104 % of control | dose: 37.5 mg/kg/injection, schedule: Q01DX009 (ip), vehicle: other 117 % of control | [9] 100 % of control | [14] 107 % of control | dose: 75.0 mg/kg/injection, schedule: Q04DX003 (ip), vehicle: other 107 % of control | [15] 112 % of control

CSc1nc2nc(Cl)c(Cl)nc2[nH]1
inactive: dose: 12.5 mg/kg/injection, schedule: Q01DX009 (ip), vehicle: saline 105 % of control | dose: 25.0 mg/kg/injection, schedule: Q01DX009 (ip), vehicle: saline 102 % of control and 104 % of control | dose: 50.0 mg/kg/injection, schedule: Q01DX009 (ip), vehicle: saline 102 % of control | dose: 100.0 mg/kg/injection, schedule: Q01DX009 (ip), vehicle: saline 98 % of control | [4] 97 % of control | [5] 98 % of control | [6] 108 % of control

CCOc1ccc(Cl)cc1
inactive: dose: 75.0 mg/kg/injection, schedule: Q01DX009 (ip), vehicle: Klucel (hydroxypropylcellulose) (HPC) 117 % of control | [7] 108 % of control | dose: 100.0 mg/kg/injection, schedule: Q04DX002 (ip), vehicle: Klucel (hydroxypropylcellulose) (HPC) 100 % of control | dose: 150.0 mg/kg/injection, schedule: Q01DX009 (ip), vehicle: Klucel (hydroxypropylcellulose) (HPC) 93 % of control | [8] 106 % of control | dose: 200.0 mg/kg/injection, schedule: Q04DX002 (ip), vehicle: Klucel (hydroxypropylcellulose) (HPC) 103 % of control | dose: 300.0 mg/kg/injection, schedule: Q01DX009 (ip), vehicle: Klucel (hydroxypropylcellulose) (HPC) 96 % of control | dose: 400.0 mg/kg/injection, schedule: Q04DX002 (ip), vehicle: Klucel (hydroxypropylcellulose) (HPC) 92 % of control

CCCCCCCCCCSC#N
inactive: dose: 5.0 mg/kg/injection, schedule: Q01DX001 (ip), vehicle: saline 103 % of control | dose: 10.0 mg/kg/injection, schedule: Q01DX001 (ip), vehicle: saline 97 % of control | dose: 20.0 mg/kg/injection, schedule: Q01DX001 (ip), vehicle: saline 105 % of control | dose: 20.0 mg/kg/injection, schedule: Q01DX009 (ip), vehicle: saline 111 % of control | dose: 20.0 mg/kg/injection, schedule: Q04DX003 (ip), vehicle: saline 100 % of control | dose: 40.0 mg/kg/injection, schedule: Q01DX001 (ip), vehicle: saline 97 % of control | dose: 40.0 mg/kg/injection, schedule: Q01DX009 (ip), vehicle: saline 106 % of control | dose: 40.0 mg/kg/injection, schedule: Q04DX003 (ip), vehicle: saline 100 % of control | dose: 80.0 mg/kg/injection, schedule: Q01DX009 (ip), vehicle: saline 100 % of control | dose: 80.0 mg/kg/injection, schedule: Q04DX003 (ip), vehicle: saline 101 % of control

CCC(COC(=O)c1ccccc1)(COC(=O)c1ccccc1)[N+](=O)[O-]
inactive: [10] 105 % of control | [12] 95 % of control | [11] 108 % of control

C(=N\c1nncs1)/Nc1nncs1
inactive: dose: 40.0 mg/kg/injection, schedule: Q01DX015 (ip), vehicle: carboxymethylcellulose (CMC) 114 % of control and 118 % of control | dose: 50.0 mg/kg/injection, schedule: Q01DX001 (ip), vehicle: carboxymethylcellulose (CMC) 102 % of control | dose: 60.0 mg/kg/injection, schedule: Q01DX015 (ip), vehicle: carboxymethylcellulose (CMC) 94 % of control | dose: 90.0 mg/kg/injection, schedule: Q01DX015 (ip), vehicle: carboxymethylcellulose (CMC) 118 % of control | dose: 100.0 mg/kg/injection, schedule: Q01DX001 (ip), vehicle: carboxymethylcellulose (CMC) 98 % of control | dose: 135.0 mg/kg/injection, schedule: Q01DX015 (ip), vehicle: carboxymethylcellulose (CMC) 88 % of control | dose: 400.0 mg/kg/injection, schedule: Q01DX001 (ip), vehicle: carboxymethylcellulose (CMC) 124 % of control

CCCCCCSc1ccc2c(cc1=O)C(NC(C)=O)CCc1cc(OC)c(OC)c(OC)c1-2 (stereo not given)
inactive: dose: 12.5 mg/kg/injection, schedule: Q04DX002 (ip), vehicle: saline 95 % of control | dose: 25.0 mg/kg/injection, schedule: Q04DX002 (ip), vehicle: saline 95 % of control | dose: 50.0 mg/kg/injection, schedule: Q04DX002 (ip), vehicle: saline 104 % of control

CC(=O)OCCC/C(=C\c1ccccc1)[N+](=O)[O-]
inactive: [15] 107 % of control

COC(=O)C(CSC(=O)c1ccccc1)NC(=O)c1ccccc1 (stereo not given)
inactive: [13] 100 % of control | [14] 110 % of control | [10] 97 % of control | [1] 100 % of control | [12] 100 % of control | [11] 101 % of control

CC1(C)C2CC3C(C(=O)O)C(C(=O)O)CCC3(C2)C1OC=O (stereo not given)
inactive: [1] 99 % of control | [2] 92 % of control | [3] 103 % of control

Reference: PubChem BioAssay AID248 (DTP/NCI, 2004)
